Test results published in EP0415456A2, “Xanthine compounds” (priority 1989, dated 1991).
Where two headings read alike, the source gives them in different places.

What was measured:
[1] = test system: glycerol-induced renal failure model; test: renal-protecting effect (glycerol-induced renal failure model); type: in vivo; conditions: male Wistar rats; for suppression of increases of the serum creatinine and of urine-nitrogen: 0.01 - 10 mg/kg i.p., 24 hours after 50% glycerol s.c. (p < 0.05); for pathological examination of removed kidneys: state of kidneys: i.p., left kidney removed 24 hours after 50% glycerol s.c.
Experimental: A renal failure is a state wherein the renal function is lowered and the homeostasis of a body fluid can be no more maintained. It is known that an acute renal failure characteristic of uriniferous tubule disorder is caused by subcutaneous or intramuscular injection of glycerol to rats [Can. J. Physiol.
Male Wistar rats were kept deprived or water for 18 hours, and served for the test. A test compound was intraperitoneally administered to the rats (dosage: 1 mℓ/kg) and the rats were anesthetized with ether and 50% glycerol was subcutaneously administered (dosage: 0.8mℓ/100g) to the rats, pinching the dorsal skin. Twenty four hours after the administration of glycerol, the rats were anesthetized with ether and 5 mℓ of blood were collected from the abdominal aorta. The collected blood was allowed to stand for 30 minutes or longer and then centrifuged at 3,000 rpm for 10 minutes, and the amounts of the serum creatinine and urine-nitrogen (UN) contained in the serum were determined by auto analyzer (Olympus AU510) or measured by a creatinine test Wako (Jaffé method) and UN Test Wako (diacetylmonooxime direct method). Both are manufactured by Wako Pure Chemicals Co.
On the other hand, the left kidneys of the blood-sampled rats were removed and placed in formalin-filled vial bottles, and used as samples for the pathological examination.

[2] = test system: zig-zag strips of the trachea; test: effects on passive Schultz-Dale reaction (antigen-induced contraction of sensitized trachea strips); design: species or system guinea pigs; conditions: Cavia porcellus, read-out: Passive S-D Reaction IC₅₀
Experimental: After 24 hours, the guinea pigs were stunned and exsanguinated, and then trachea were removed. The zig-zag strips of the trachea were prepared by the method of Emmerson, et al. [J. Pharm. […] The strips were suspended in Krebs-Henseleit solution at 37°C […] Antigen (EWA) was then introduced in the solution (final concentration; 1μg/ml), and the contraction was measured by […] After the contraction reached stable plateau, the compounds were cumulatively added in order to get concentration-relaxation curves. […]

[3] = test system: death induced by Platelet-Activating Factor (PAF); test: effect of inhibiting death induced by Platelet-Activating Factor (PAF); type: in vivo; conditions: Mus musculus; oral, dd strain mice, 40 µg/kg PAF i.v. 1 hour after administration; highest dose 100 mg/kg; read-out: MED (mg/kg) for Inhibiting Death Induced by PAF
Experimental: A test compound (100 mg/kg) was orally administered to dd strain mice (male animals, 28 to 32g) and 40 µg/kg of PAF (manufactured by Avanti Polar Lipids Co.) was administered via tail veins 1 hour after the administration according to the method of Carlson et al. [Agents and Actions, 21, 379 (1987)]. The mortality rates of compound-treated groups were compared with those of matched control groups, assessed during the same experimental session, by the Fisher's exact probability test. The cases wherein the level of significance (p value) is 0.05 or less are considered to be effective with respect to the inhibition. The above procedure was repeated, using the test compound in a decreasingly small quantity so as to find out the Minimum Effective Dosage (MED) wherein […] be observed between the test and control groups.

Wistar rats = test: diuretic effect; type: in vivo; conditions: 25 mg/kg oral, urine collected for 6 hours
Experimental: Wistar rats (male: 150 - 300 g) were starved for 18 hours prior to the administration of the test compounds. […] Urine was collected for 6 hours after the administration. Urine volume was measured and the electrolytes (Na+ and K+) in the urine were determined with a flame photome[…], Hitachi Ltd., Japan). All parameters are expressed as relative values of control.

[4] = concentration to produce 50% relaxation of EWA (1µg/mℓ)-contracted trachea strips of passively sensitized guinea pigs

Compound | suppression of increases of the serum creatinine and of urine-nitrogen [1] | pathological examination of removed kidneys: state of kidneys [1] | IC50 [2, 4] [nM] | minimal effective dose [3] [mg/kg] | Increase in K⁺ excretion (%) (Wistar rats; relative to control) | Increase in Na⁺excretion (%) (Wistar rats; relative to control) | Increase in Urine (%) (Wistar rats; relative to control) | Na⁺/K⁺ (Wistar rats; relative value of control (control 1.00)) | IC50 [2] [nM]
CCCn1c(=O)c2[nH]c(C(C)Cc3ccncc3)nc2n(CCC)c1=O (centres unmarked) [Compound 7, 8-[1-methyl-2-(4-pyridyl)ethyl]-1,3-dipropylxanthine] | significantly suppressed | significantly improved | 2700 | > 100 |  |  |  |  | 
CCCn1c(=O)c2[nH]c(C(C)Cc3csc(C)n3)nc2n(CCC)c1=O (centres unmarked) [Compound 8, 8-[1-Methyl-2-(2-methylthiazol-4-yl)ethyl]-1,3-dipropylxanthine] | significantly suppressed | significantly improved | 880 | 100 | 22 | 138 | 82 | 1.95 | 
Cn1c(=O)c2[nH]cnc2n(C)c1=O [Theophylline, 1,3-dimethylxanthine, reference compound] |  |  |  | 100 |  |  |  |  | 23000
